Entries after “also recorded” stand apart in the source; their conditions may differ. Where two headings read alike, the source gives them in different places.
Experiments:
anti-DA antibodies = assay: Equilibrium dialysis competition, displacement of (3H) DA-G-ALM; type: binding, rabbit; conditions: for KA: conjugates, cross-reactivity with anti-DA antibodies; for KA / affinity constant KA: 1200 min; for affinity constant KA: displacement of (3H) DA-G-ALM from anti-DA antibodies
anti-TA antibodies = assay: Equilibrium dialysis competition, displacement of (3H)-TA-G-ALM; type: binding, rabbit; conditions: for KA: conjugates, slight immunoreactivity with anti-TA antibodies; for KA / affinity constant KA: 1200 min; for affinity constant KA: displacement of (3H)-TA-G-ALM from anti-TA antibodies
Anti-NA antibodies = type: binding, rabbit
Anti-W antibodies = assay: ELISA competition, affinity and specificity of anti-indolamine antibodies; type: binding, rabbit
Experimental: This study was performed using an ELISA test (Enzyme-linked immunosorbent assay). The plates were coated with a solution of BSA-G-indolamine conjugate and then saturated with bovine serum. they were then placed in contact with the antibody solution under study, and then with anti-(rabbitgammaglobulin) goat antibodies conjugated with peroxidate of horseradish.

anti-GABA antiserum = assay: Equilibrium dialysis competition with tracer (3H) GABA-GA-PPL; type: binding, rabbit; conditions: for cross-reactivity, times less than that of the GABA-GA-PPL conjugate: anti-GABA antiserum
Experimental: The antibody solution is placed on one side of the membrane. Each conjugate of catecholamine is mixed with an equal volume of radioactive ligand before being placed on the other side of the membrane. The incubation solution of each antiserum is a citrate buffer 0.1M (pH 6.2) containing 1 mg/ml of bovine serum albumin (BSA) and 10 mM of sodium azide (N3 Na). The final volume is 2×150 microliters. This is left to incubate at 4° C. for 20 hours. Next the beta radioactivity in a sample of 100 microliters taken from each side of the membrane is counted.
Studies of specificity were conducted using the method of equilibrium dialysis, by competition of the tracer (^3 H) GABA-GA-PPL and the various conjugated analogues GABA-GA-PPL, glycine-GA-PPL, etc.

GABA antiserum = assay: Immunocytochemical absorption controls of GABA antiserum on rat brain sections; parameters: species or system rabbit; conditions: absorption with a 10^-3 M solution
Experimental: Rat brains were fixed by perfusion with a 5% solution of glutaraldehyde in a cacodylate buffer, 0.1M, pH 7.5. The brain was cut in slices approximately 4 mm thick and then fixed again for 1.5-2 hours using the same fixative.
Sections of 50 micrometers were incubated with GABA antiserum diluted to 1/1,500. This antiserum was visualized using the peroxidase-antiperoxidasemethod, with diaminobenzidine as the chromogen.

[1] = concentrations between 10^-9 M and 10^-8 M

For `CNC(=O)[C@H](CCCCNCCCCCN[C@@H](Cc1ccc(O)c(O)c1)C(=O)O)NC(C)=O` [L-DOPA--G--ALM], the KA (anti-DA antibodies) was 3.8 × 10^5 1. mol.^-1 and the KA (anti-TA antibodies) was 3.3 × 10^5 1. mol.^-1.
With `NC[C@H](O)c1ccc(O)c(O)c1` [NA, norepinephrine, reference compound] the “displacement” value (Anti-NA antibodies) was “no displacement”.
In the case of `N[C@@H](Cc1c[nH]c2ccccc12)C(=O)O` [Tryptophane, L-tryptophane], the “displacement / identification by anti-W antibodies” value (Anti-W antibodies) is reported as “only weakly identified”.
In the case of `O=C(O)CNCCCCCNCCCC[C@H](NC(=O)[C@H](Cc1ccccc1)NC(=O)[C@@H]1CCCN1)C(=O)O` [glycine conjugate], the “cross-reactivity, times less than that of the GABA-GA-PPL conjugate” value (anti-GABA antiserum) is reported as 795 times.
With `CNC(=O)[C@H](CCCCNCCCCCNCCc1ccc(O)c(O)c1)NC(C)=O` [DA-G-ALM] the “displacement of (3H) DA-G-ALM / recognition by anti-DA antibodies” value (anti-DA antibodies) was “No displacement”, the “affinity constant KA” value (anti-DA antibodies) was 6.7×10^7 l.mol.^-1 and the “displacement of (3H) DA-G-ALM / recognition by anti-DA antibodies” value (anti-DA antibodies; listed as DA-b-ALM) was “best displacement”. The “displacement of (3H)-TA-G-ALM / recognition by anti-TA antibodies” value (anti-TA antibodies) was “No displacement; also recorded: no affinity” and the “affinity constant KA” value (anti-TA antibodies) was 2.6×10^4 l.mol.^-1.
For `CNC(=O)[C@H](CCCCNCCCCCNCC(O)c1ccc(O)cc1)NC(C)=O` (some centres unmarked) [OA--G--ALM], the KA (anti-DA antibodies) was 5 × 10^4 1. mol.^-1 and the KA (anti-TA antibodies) was 5.9 × 10^5 1. mol.^-1.
`O=C(O)CCC(NCCCCCNCCCC[C@H](NC(=O)[C@H](Cc1ccccc1)NC(=O)[C@@H]1CCCN1)C(=O)O)C(=O)O` (some centres unmarked) [glutamate conjugate] was tested, and the “reactivity with anti-GABA antiserum” value (anti-GABA antiserum; [1]) was “No reactivity”.
Compound `O=C(O)CCCNCCCCCNCCCC[C@H](NC(=O)[C@H](Cc1ccccc1)NC(=O)[C@@H]1CCCN1)C(=O)O` [GABA--GA--lysine] has a Kd (anti-GABA antiserum; dissociation constant of the anti-GABA antibodies for the antigen) of 20 nM.
With `CNC(=O)[C@H](CCCCNCCCCCNCC(O)c1ccc(O)c(O)c1)NC(C)=O` (some centres unmarked) [NA-G-ALM] the “displacement” value (Anti-NA antibodies) was “best displacement”, the KA (Anti-NA antibodies; 1200 min) was 3.8e+07 L/mol and the “reactivity, times lower than that of DA-G-ALM” value (anti-DA antibodies; anti-DA antibodies) was 53 times. For the same compound, the “affinity constant KA” value (anti-DA antibodies) was 5×10^5 l.mol.^-1, the “displacement of (3H)-TA-G-ALM / recognition by anti-TA antibodies” value (anti-TA antibodies) was “No displacement” and the “affinity constant KA” value (anti-TA antibodies) was 1.4×10^4 l.mol.^-1.
`NCCCC(=O)O` [GABA, gamma-aminobutyric acid, reference compound] was tested, and the “displacement of the radioactive ligand (3H) GABA-GA-PPL” value (anti-GABA antiserum; even at a concentration of 10^-5 M) was “incapable of displacing” and the “coloration after absorption of the serum” value (GABA antiserum) was “very great reduction in coloration”.
For `O=C(O)CCNCCCCCNCCCC[C@H](NC(=O)[C@H](Cc1ccccc1)NC(=O)[C@@H]1CCCN1)C(=O)O` [beta-alanine conjugate], the “cross-reactivity, times less than that of the GABA-GA-PPL conjugate” value (anti-GABA antiserum) was 175 times.
In the case of `NCCc1ccc(O)c(O)c1` [dopamine, reference compound], the “affinity constant KA” value (anti-DA antibodies) is reported as 6.7×10^3 l.mol.^-1 and the “displacement of (3H) DA-G-ALM by unmodified hapten” value (anti-DA antibodies; even at a concentration of 10^-6 M) is reported as “not capable of displacing”.
In the case of `O=C(O)CC(NCCCCCNCCCC[C@H](NC(=O)[C@H](Cc1ccccc1)NC(=O)[C@@H]1CCCN1)C(=O)O)C(=O)O` (some centres unmarked) [aspartate conjugate], the “reactivity with anti-GABA antiserum” value (anti-GABA antiserum; [1]) is reported as “No reactivity”.
In the case of `NCCc1ccc(O)cc1` [TA, p-tyramine, reference compound], the “displacement of (3H)-TA-G-ALM / recognition by anti-TA antibodies” value (anti-TA antibodies) is reported as “incapable of displacing” and the “affinity constant KA” value (anti-TA antibodies) is reported as 10^4 l.mol.^-1.
In the case of `O=C(O)[C@H](CCCCNCCCCCNCCS(=O)(=O)O)NC(=O)[C@H](Cc1ccccc1)NC(=O)[C@@H]1CCCN1` [taurine conjugate], the “reactivity with anti-GABA antiserum” value (anti-GABA antiserum) is reported as “on the same order or magnitude as with the conjugate of aspartate or glutamate”.
With `CNC(=O)[C@H](CCCCNCCCCCNCCc1ccc(O)cc1)NC(C)=O` [TA-G-ALM] the “displacement of (3H) DA-G-ALM / recognition by anti-DA antibodies” value (anti-DA antibodies) was “No displacement; also recorded: do not recognize”, the KA (anti-DA antibodies) was 3.1 × 10^4 1. mol.^-1 and the “affinity constant KA” value (anti-TA antibodies) was 7×10^7 l.mol.^-1.
